Reference: PMC11184554, “Nature-Inspired Gallinamides Are Potent Antischistosomal Agents: Inhibition of the Cathepsin B1 Protease Target and Binding Mode Analysis” (ACS Infectious Diseases, 2024)

Tests used:
[1] = system: S. mansoni prolyl oligopeptidase (SmPOP); assay: Protease activity in extracts of adult worms treated with gallinamides, Cbz–Gly–Pro–AMC; assay type: cell-based; conditions: adult worms incubated with 5 μM compound for 24 h (Figure 2 legend: 48 h); extract assayed with Cbz–Gly–Pro–AMC at pH 8.0
Protocol: (§1) Adult mixed sex S. mansoni were incubated in the presence of 5 μM gallinamide A, 1, 6, or 9 for 24 h, and protein extracts therefrom were assayed with the cathepsins B and L substrate, Cbz–Phe–Arg–AMC. Protease activity was reduced by ∼95% relative to the activity of untreated controls (Figure 2A). For comparison, we also quantified the activity of the nondigestive proteolytic enzyme, S. mansoni prolyl oligopeptidase (SmPOP). This serine protease, which is localized in the tegument of adult worms, was assayed with the selective substrate Cbz–Gly–Pro–AMC.[44] SmPOP was unaffected by the gallinamide treatment.
(§2) Figure 2 SmCB1 is a target for gallinamides in adult S. mansoni. (A) Mixed sex, adult S. mansoni were incubated for 48 h with 5 μM gallinamide A or 1, 6, and 9. After washing and preparation of worm extract, proteolytic activities (0.2 μg of protein) were measured in a kinetic assay using the cathepsin B and L substrate, Cbz–Phe–Arg–AMC (SmCatB/L, gray bars) at pH 5.5 or the prolyl oligopeptidase substrate, Cbz–Gly–Pro–AMC (SmPOP, white bars) at pH 8.0. Means ± SE of three replicates are normalized to the control not exposed to the inhibitor (set as 100%). (B–D) Imaging of SmCB1 using the gallinamide compound 5 as an activity-based probe. 5 contains an alkyne tag that can be modified by a copper-catalyzed click reaction with a fluorescent reagent (Alexa Fluor 647-azide) (B). Recombinant SmCB1 (rSmCB1, 0.5 μg) (C) or extracts of adult S. mansoni worms (7 μg of protein) (D) were incubated with 5 (10 μM) for 1 h and then clicked. Reactions were resolved by SDS-PAGE, and gels were visualized using a fluorescence scanner (Probe), stained for protein using Coomassie Brilliant Blue (CBB), or analyzed by Western blot with an anti-SmCB1 antibody (WB). In a control experiment, rSmCB1 or worm extract was treated with the […] protease inhibitor E-64 (10 μM), prior to incubation with 5. The positions of rSmCB1, native SmCB1, and its pro-form (pro-SmCB1) are indicated. The mass difference between rSmCB1 and native SmCB1 is caused by glycosylation (see Methods). The active site of the pro-SmCB1 is shielded by a propeptide[45] that prevents effective binding of 5. […]
(§3) Proteolytic activities in S. mansoni adult extracts were measured in a continuous kinetic assay using the following peptidyl fluorogenic substrates (Bachem) or internally quenched FRET substrates (IOCB): 50 μM Cbz–Phe–Arg–AMC for cathepsins B and L,[13],[15] […] Substrate hydrolysis was measured continuously using an Infinite M1000 microplate reader (Tecan) at excitation and emission wavelengths of 360/465 nm for AMC substrates and 320/420 nm for FRET substrates. […]

[2] = system: cathepsins B and L (SmCatB/L); assay: Protease activity in extracts of adult worms treated with gallinamides, Cbz–Phe–Arg–AMC; assay type: cell-based, S. mansoni; conditions: adult worms incubated with 5 μM compound for 24 h (Figure 2 legend: 48 h); extract assayed with Cbz–Phe–Arg–AMC at pH 5.5
Protocol: as §1, §2, §3

[3] = system: S. mansoni newly transformed schistosomula (NTS); assay: Phenotypic screen with newly transformed schistosomula (NTS); assay type: cell-based
Protocol: The same 19 gallinamides were screened for bioactivity against S. mansoni newly transformed schistosomula (NTS), the postinvasive parasite stage that feeds on host blood.[40] In this primary assay, the NTS were exposed to 1 and 10 μM compounds for 3 days, and the resulting phenotypic responses were graded from 0 through 4, i.e., the least to the most severe (Table 2 and Table S1). […] The effects were more pronounced after 72 h, and when the higher, 10 μM, compound concentration was used (Table S1). […] Also, compared to gallinamide A and its analogs, 3 has an additional N-terminal N-acetamide modification that further reduces bioactivity (Table 2).
Phenotypic screens employed S. mansoni newly transformed schistosomula (NTS) and adults and were carried out as described previously.[18]−[20],[42] NTS were prepared by mechanically transforming infective larvae (cercariae).[40],[42] NTS (200–300 parasites) were incubated in flat-bottomed 96-well plates in 200 μL of Basch Medium 169 containing 5% (v/v) FBS, 100 U mL^–1 penicillin and 100 μg mL^–1 streptomycin (complete Basch medium)[75] at 5% CO2 and 37 °C.[76],[77] Inhibitors were added at final concentrations of 1 and 10 μM, and changes in phenotypes were observed under an inverted microscope every 24 h for up to 72 h.
A constrained nomenclature of “descriptors”[39],[42] was used to record the multiple and dynamic changes in movement, shape, and translucence that the schistosome parasite is capable of (Table S1 for NTS and Table S3 for adults). These descriptors were then converted into an ordinal “severity score” system ranging from 0 (no effect) to 4 (maximum effect), which allows for the relative comparison of compound effects.

[4] = 1 μM compound, 24 h, scale 0 (no effect) to 4 (most severe)
[5] = 1 μM compound, 48 h, scale 0 to 4
[6] = 1 μM compound, 72 h, scale 0 to 4
[7] = 10 µM compound, 24 h, scale 0 to 4
[8] = 10 µM compound, 48 h, scale 0 to 4
[9] = 10 µM compound, 72 h, scale 0 to 4

| SMILES | SmPOP activity after gallinamide treatment [1] | protease activity reduced relative to untreated controls [2] [%] | schistosomula phenotype descriptors ([3]; 1 µM compound, 24 h) | schistosomula severity score [3, 4] | schistosomula severity score [3, 5] | schistosomula severity score [3, 6] | schistosomula severity score [3, 7] | schistosomula severity score [3, 8] | schistosomula severity score [3, 9] | schistosomula phenotype descriptors ([3]; 1 µM compound, 48 h) | schistosomula phenotype descriptors ([3]; 10 µM compound, 24 h) |
| --- | --- | --- | --- | --- | --- | --- | --- | --- | --- | --- | --- |
| CCC(C)C(C(=O)OC(CC(C)C)C(=O)NC(CC(C)C)C(=O)NC(C)C=CC(=O)N1C(=O)C=C(OC)C1CC(C)C)N(C)C (stereo not shown) [compound 1] | unaffected | ~95 | R, unc | 2 | 4 | 4 | 4 | 4 | 4 |  |  |
| CCC(C)C(C(=O)OC(CC(C)C)C(=O)NC(CC(C)C)C(=O)NC(C)C=CC(=O)N1C(=O)C=C(OC)C1Cc1ccccc1)N(C)C (stereo not shown) [compound 9] | unaffected | ~95 |  | 1 | 2 | 4 | 3 | 4 | 4 | Dark, R | Dark, R, S |
| COC1=CC(=O)N(C(=O)/C=C/[C@H](C)NC(=O)[C@H](CC(C)C)NC(=O)[C@H](CC(C)C)OC(=O)[C@H](Cc2ccccc2)N(C)C)[C@H]1Cc1ccccc1 [compound 6] | unaffected | ~95 | R, unc | 2 | 4 | 4 | 4 | 4 | 4 |  |  |
| CC[C@H](C)[C@@H](C(=O)O[C@@H](CC(C)C)C(=O)N[C@@H](CC(C)C)C(=O)N[C@@H](C)/C=C/C(=O)N1C(=O)C=C(OC)[C@@H]1C)N(C)C [gallinamide A] | unaffected | ~95 |  | 1 | 2 | 4 | 4 | 4 | 4 | Dark, R |  |
